assay: Lactate response detection of purified probe (signal with 10 mM lactate divided by signal without lactate); format: biochemical; settings: M185 saturation mutants of two-site mutants of LldR(80-258)-185/189-cpYFP

| Substance | Response of the three-site mutants to lactate |
| --- | --- |
| M185L/P189M/P190D: three-site mutant of LldR(80-258)-185/189-cpYFP; Table 4 row printed WD | 5.6 |
| M185L/P189H/P190D: three-site mutant of LldR(80-258)-185/189-cpYFP | 15.3 |
| M185S/P189H/P190D: three-site mutant of LldR(80-258)-185/189-cpYFP | 7.0 |
| M185F/P189H/P190D: three-site mutant of LldR(80-258)-185/189-cpYFP | 8.0 |
| M185A/P189M/P190D: three-site mutant of LldR(80-258)-185/189-cpYFP; Table 4 row printed WD | 8.4 |
| M185V/P189H/P190D: three-site mutant of LldR(80-258)-185/189-cpYFP | 6.2 |

assay: Lactate concentration-gradient titration of purified probe (ratio of 420 nm to 485 nm excitation, 528 nm emission); format: binding; settings: ratio 420 nm/485 nm excitation
Source text: (§1) 6. […] The fluorescence excitation and emission determination of the samples were done using a multifunctional fluorescence microplate reader.

| Substance | magnitude of change [fold] |
| --- | --- |
| P189C/P190Y: LldR(80-258)-185/189-cpYFP mutant | 4.3 |

same assay, conditions: ratio 420 nm/485 nm excitation, read-out: Kd (binding constant)

| Substance | Kd [µM] |
| --- | --- |
| P189C/P190Y: LldR(80-258)-185/189-cpYFP mutant | 41 |

assay: Lactate response detection of purified probe (signal with 10 mM lactate divided by signal without lactate); format: biochemical; settings: detection signal with 10 mM lactate divided by signal without lactate; mutants of LldR(80-258)-185/189-cpYFP
Protocol: 4. After purified proteins were subjected to SDS-PAGE, probes were diluted to a protein solution having a final concentration of 5-10 μM using assay buffer (100 mm HEPES, 100 mM NaCl, pH 7.3) or phosphate buffer PBS.
as §1
Mutants of the two sites, 189 and 190, were constructed on the basis of LldR(80-258)-185/189-cpYFP. Plasmid pCDFDuet-LldR(80-258)-185/189-cpYFP was linearized by reverse PCR, mutations were introduced at mutation sites by primers, and the obtained PCR products was ligated by adding phosphorus with PNK, T4 DNA ligase, and PEG4000, transformed into BL21 (DE3), and then screened. […] Exemplary nucleic acid sequences were shown in SEQ ID No: 31 (LldR(80-258)-185/189-P189F/P190D-cpYFP).

| Substance | Responses to lactate for 189 mutant versus 190 mutant |
| --- | --- |
| P189C/P190F: LldR(80-258)-185/189-cpYFP mutant | 2.3 |
| P189F/P190D: LldR(80-258)-185/189-cpYFP mutant | 13.4 |
| P189F/P190H: LldR(80-258)-185/189-cpYFP mutant | 3.7 |
| P189H/P190R: LldR(80-258)-185/189-cpYFP mutant | 3.2 |
| P189M/P190D: LldR(80-258)-185/189-cpYFP mutant | 7.0 |
| P189C/P190Y: LldR(80-258)-185/189-cpYFP mutant | 4.0 |
| P189/P190(WT): lactate optical probe, cpYFP inserted at 185/189 of LldR(80-258), unmutated | 0.2 |
| P189N/P190Y: LldR(80-258)-185/189-cpYFP mutant | 3.1 |
| P189S: LldR(80-258)-185/189-cpYFP mutant | 3.3 |
| P189N/P190F: LldR(80-258)-185/189-cpYFP mutant | 2.3 |
| P189H/P190D: LldR(80-258)-185/189-cpYFP mutant | 8.9 |
| P189R/P190I: LldR(80-258)-185/189-cpYFP mutant | 3.5 |
| P189N: LldR(80-258)-185/189-cpYFP mutant | 2.1 |
